According to patent US5756467A, “Adipocyte differentiation inhibiting peptide and adipocyte differentiation inhibiting agent using the peptide as active component thereof” (Itoham Foods Inc., priority 1993, dated 1998):
Residues, ends and D or L forms follow the SMILES beside them.

Columns and labels:
adipose tissue = assay: Effect of globin proteolysate on increase of adipose tissue, mice on 50% fat feed (Test 4); assay type: in vivo; details: 50% fat feed + Clenbuterol 2 ppm
Source text: Then, mice were allowed to ingest freely 50% fat feed and then tested for weight of adipose tissue and cell number.

[1] = test system: cells in the subcutaneous adipose tissue; assay: Effect of globin proteolysate on distribution of adipose tissue cells (Test 4); assay type: in vivo, mice; details: 50% fat feed + Clenbuterol 2 ppm
Source text: The cell number in adipose tissues shown in Table 7 represent the values including adipocytes, preadipocytes, fibroblasts, blood vessel cells, etc. The cells in the subcutaneous adipose tissue were investigated in detail as sorted into matured adipocytes, immatured adipocytes, and interstitial cells (stroma).
It is clearly noted from Table 8 showing the results of the investigation that particularly the differentiation of fibro-blasts in the group of interstitial cells represented as stromas to preadipocytes was repressed.

Swiss mouse 3T3-L1 cells = assay: Adipocyte differentiation of preadipocytes in vitro, GPDH activity as marker enzyme (Tests 1 and 2); assay type: cell-based; details: for action to inhibit the GPDH activity: treatment before and after the induction of differentiation, depending on the peptide concentration
Experimental: (1) Treatment before induction of differentiation
Swiss mouse 3T3-L1 cells were inoculated at a density of about 3×10^4 cells/ml to a cell culturing dish. A Dulbecco modified Eagle culture medium (DMEM) containing bovine fetal blood serum incorporated therein at a concentration of 10% was used as the culture medium. The culture was invariably carried out in an ambience of 5% CO2 and 95% of air at 37° C.
After a monolayer of cells was formed, the cell layer surface was washed with a phosphate buffer physiological salt solution (PBS). In the presence of culture media containing the CD and the fraction A respectively at concentration of 0, 2, 4, and 8 mg/ml and at concentration of 0, 20, 40, and 80 μg/ml, the cell layer was cultured. Then, the cell layer surface was washed with PBS and the cell layer was cultured for two days in the presence of a culture medium incorporating therein the differentiation inducing substance (0.25 μM of dexamethasone, […] of a-methyl-3-isobutyl xanthine, and 10 μg/ml insulin).
Subsequently, the cell layer was deprived of the culture medium containing the differentiation-inducing substance. The cell layer surface was washed likewise with PBS and the cell layer was cultured for about one week in the presence of a culture medium incorporating insulin therein at a concentration of 10 μg/ml.
The effect of the fraction A on the adipocyte differentiation was rated by determining the glycerol-3-phosphate dehydrogenase activity (GPDH) by the well-known method as a marker enzyme.
(2) Treatment after induction of differentiation
Swiss mouse 3T3-L1 cells were cultured by the same method as in (1) mentioned above and then tested for GPDH activity, providing that the culture medium containing insulin at a concentration of 10 μg/ml was added to the GD and the fraction A after the removal of the culture medium containing the differentiation inducing substance.
[Test 2] Differentiation inhibiting effect of adipocyte differentiation inhibiting peptide (chemical synthesis product) on preadipocytes (in vitro)
The effects of the chemically synthesized H-Val-Thr-Leu-OH and the H-Val-Tyr-Pro-OH obtained by the same method as in Example 5 on Swiss mouse 3T3-L1 cells in were investigated by the same method as in Example 5. […]

[2] = test system: adipocytes in adipose tissue; assay: Effect of synthetic peptides on increase of cell number in murine adipose tissue (Test 3); assay type: in vivo, mice; details: 50% fat meal + 20 ppm peptide
Experimental: [Test 3] Effect of adipocyte differentiation inhibiting peptide (chemical synthesis product) (in vivo)
The two adipocyte differentiation inhibiting peptides of the invention, Val-Thr-Leu and Val-Tyr-Pro, synthesized by the method shown in Example 5 were tested for effect on increase of adipocytes (in vivo). The test was performed by the same method as in Test 1 using globin proteolysate.

[3] = Peptide 0.2 mg/ml, treatment after induction of differentiation (48 hours)
[4] = Peptide 0.2 mg/ml, treatment before induction of differentiation (48 hours)
[5] = Peptide 0.4 mg/ml, treatment after induction of differentiation (48 hours)
[6] = Peptide 0.4 mg/ml, treatment before induction of differentiation (48 hours)
[7] = Peptide 0.8 mg/ml, treatment after induction of differentiation (48 hours)
[8] = Peptide 0.8 mg/ml, treatment before induction of differentiation (48 hours)

Compound	GDPH activity (Swiss mouse 3T3-L1 cells; [3])	Ratio of Inhibition (Swiss mouse 3T3-L1 cells; [3])	GDPH activity (Swiss mouse 3T3-L1 cells; [4])	Ratio of Inhibition (Swiss mouse 3T3-L1 cells; [4])	GDPH activity (Swiss mouse 3T3-L1 cells; [5])	Ratio of Inhibition (Swiss mouse 3T3-L1 cells; [5])	GDPH activity (Swiss mouse 3T3-L1 cells; [6])	Ratio of Inhibition (Swiss mouse 3T3-L1 cells; [6])	GDPH activity (Swiss mouse 3T3-L1 cells; [7])	Ratio of Inhibition (Swiss mouse 3T3-L1 cells; [7])	GDPH activity (Swiss mouse 3T3-L1 cells; [8])	Ratio of Inhibition (Swiss mouse 3T3-L1 cells; [8])	action to inhibit the GPDH activity (Swiss mouse 3T3-L1 cells)	Number of adipocytes, Epididymal adipose tissue [2]	Number of adipocytes, Retroperitoneal adipose tissue [2]	Number of adipocytes, Subcutaneous adipose tissue [2]	other results
CC(C)(C)NCC(O)c1cc(Cl)c(N)c(Cl)c1 (centres unmarked) [Clenbuterol]	–	–	–	–	–	–	–	–	–	–	–	–	–	–	–	–	Number of adipocytes, Epididymal adipose tissue (adipose tissue): 79 ± 7 DNA μg/adipose tissue; Number of adipocytes, Retroperitoneal adipose tissue (adipose tissue): 18 ± 2 DNA μg/adipose tissue; Number of adipocytes, Subcutaneous adipose tissue (adipose tissue): 96 ± 8 DNA μg/adipose tissue; weight of adipose tissue, Epididymal adipose tissue (adipose tissue): 0.97 ± .11 g; weight of adipose tissue, Retroperitoneal adipose tissue (adipose tissue): 0.28 ± .04 g; weight of adipose tissue, Subcutaneous adipose tissue (adipose tissue): 1.49 ± .22 g; Adipocyte [1]: 30; Preadipoytes [1]: 30; Stroma [1]: 36
CC(C)C[C@H](NC(=O)[C@@H](NC(=O)[C@@H](N)C(C)C)[C@@H](C)O)C(=O)O [Val-Thr-Leu, H-Val-Thr-Leu-OH] (H-Val-Thr-Leu-OH)	463.2 ± 29.7 mU/mg protein	35.5%	102.5 ± 19.6 mU/mg protein	82.1%	281.1 ± 19.6 mU/mg protein	60.8%	8.1 ± 1.6 mU/mg protein	98.6%	13.8 ± 5.4 mU/mg protein	98.1%	6.3 ± 1.9 mU/mg protein	98.9%	conspicuous action to inhibit the GPDH activity	88 DNA μg/adipose tissue	23 DNA μg/adipose tissue	102 DNA μg/adipose tissue	–
CC(C)[C@H](N)C(=O)N[C@@H](Cc1ccc(O)cc1)C(=O)N1CCC[C@H]1C(=O)O [Val-Tyr-Pro, H-Val-Tyr-Pro-OH] (H-Val-Tyr-Pro-OH)	412.6 ± 20.3 mU/mg protein	42.5%	106.7 ± 28.1 mU/mg protein	83.0%	197.3 ± 27.5 mU/mg protein	72.5%	10.6 ± 2.3 mU/mg protein	98.5%	14.7 ± 2.7 mU/mg protein	98.0%	7.8 ± 1.5 mU/mg protein	98.7%	conspicuous action to inhibit the GPDH activity	102 DNA μg/adipose tissue	27 DNA μg/adipose tissue	125 DNA μg/adipose tissue	–
